For this experiment, the target named is GSK3β (Homo sapiens, UniProt P49841). Put plainly: Inhibitory activity against GSK3β (33P-ATP phosphorylation of prephosphorylated GS1 peptide, two protocols). Type of experiment: biochemical. As for the experimental part:
Two different protocols can be used. In a first protocol: 7.5 μM of prephosphorylated GS1 peptide and 10 μM ATP (containing 300,000 cpm of 33P-ATP) were incubated in 25 mM Tris-HCl, pH 7.5, 0.6 mM DTT, 6 mM MgCl2, 0.6 mM EGTA, 0.05 mg/ml BSA buffer for 1 hour at room temperature in the presence of GSK3beta (total reaction volume: 100 microliters). In a second protocol: 4.1 μM of prephosphorylated GS1 peptide and 42 μM ATP (containing 260,000 cpm 33P-ATP) were incubated in 80 mM Mes-NaOH, pH 6.5, 1 mM Mg acetate, 0.5 mM EGTA, 5 mM 2-mercaptoethanol, 0.02% Tween 20, 10% glycerol buffer for 2 hours at room temperature in the presence of GSK3beta. Inhibitors were solubilized in DMSO (final solvent concentration in the reaction medium, 1%). The reaction was stopped with 100 microliters of a solution made of 25 g polyphosphoric acid (85% P2O5), 126 ml 85% H3PO4, H2O to 500 ml and then diluted to 1:100 before use. An aliquot of the reaction mixture was then transferred to Whatman P81 cation exchange filters and rinsed with the solution described above. Incorporated 33P radioactivity was determined by liquid scintillation spectrometry. The phosphorylated GS-1 peptide used in the example was the same one as reported in Woodgett, J. R. (1989) Analytical Biochemistry 180, 237-241 and had the same sequence as reported therein, which reference is incorporated herein by reference in its entirety.

Sequence of GSK3β (P49841 whole entry): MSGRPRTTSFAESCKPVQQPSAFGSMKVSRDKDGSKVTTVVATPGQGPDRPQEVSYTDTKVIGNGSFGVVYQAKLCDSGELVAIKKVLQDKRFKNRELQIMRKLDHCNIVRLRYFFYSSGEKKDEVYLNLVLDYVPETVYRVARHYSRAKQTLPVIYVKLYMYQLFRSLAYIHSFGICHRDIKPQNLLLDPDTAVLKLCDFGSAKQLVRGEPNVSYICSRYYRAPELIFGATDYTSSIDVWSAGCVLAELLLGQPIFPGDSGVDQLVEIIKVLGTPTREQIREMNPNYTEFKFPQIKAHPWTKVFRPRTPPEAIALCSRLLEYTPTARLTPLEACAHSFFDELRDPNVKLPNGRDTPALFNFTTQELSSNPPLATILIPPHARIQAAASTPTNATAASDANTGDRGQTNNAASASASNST

`COc1cc(F)ccc1C(=O)NC1CCCn2c1nc(-c1ccncn1)cc2=O` (racemic) [compound No. 33 of table 1, (+/−) 4-Fluoro-2-methoxy-N-(4-oxo-2-pyrimidin-4-yl-6,7,8,9-tetrahydro-4H-pyrido[1,2-a]pyrimidin-9-yl)benzamide]: the midpoint of inhibition, the IC50, lay at 5 nM.

The IC50 is the concentration that gives 50% inhibition. Read a low IC50 as inhibition by little substance.

(Values after patent publication US8148364B2, “Substituted bicyclic pyrimidone derivatives” (Sanofi-Aventis, priority 2005, dated 2012).)
